Reference: patent publication US9919998B2, “Antibacterial agents: Nα-aroyl-N-aryl-phenylalaninamides” (priority 2014, dated 2018)
In brackets after ≈: the same amount, converted by molar mass.

Legend:
Assay type in all cases: cell-based
[1] = tested on: Mycobacterium tuberculosis H37Rv; test: Microplate Alamar Blue assay (MABA) MIC, M. tuberculosis; conditions: read-out: MIC Mycobacterium tuberculosis H37Rv
From the text: (§1) Minimal inhibitory concentrations (MICs) in Mycobacterium tuberculosis H37Rv and Mycobacterium avium ATCC 25291 were quantified using microplate Alamar Blue assays as described (MABA; [Collins, L. & Franzblau, S. (1997) Microplate Alamar Blue assay versus BACTEC 460 system for high-throughput screening of compounds against Mycobacterium tuberculosis and Mycobacterium avium. Antimicrob. Agents Chemother. 41, 1004-1009]).

[2] = tested on: Mycobacterium avium ATCC 25291; test: Microplate Alamar Blue assay (MABA) MIC, M. avium; conditions: ATCC25291, M. avium ATCC 25291
From the text: as §1

[3] = tested on: Mycobacterium smegmatis ATCC 19420; test: Broth microdilution MIC, M. smegmatis; conditions: Mycolicibacterium smegmatis, ATCC19420, M. smegmatis ATCC 19420; read-out: MIC Mycobacterium smegmatis ATCC 19420
From the text: MICs in Mycobacterium smegmatis ATCC 19420 and Mycobacterium smegmatis ATCC 19420 derivatives were quantified using broth microdilution assays as described [Clinical and Laboratory Standards Institute (CLSI/NCCLS) (2009) Methods for Dilution Antimicrobial Susceptibility Tests for Bacteria That Grow Aerobically; Approved Standard, Eighth Edition. CLIS Document M07-A8 (CLIS, Wayne Pa.)].

[4] = tested on: Vero E6 ATCC CRL1586 cells; test: Mammalian-cell cytotoxicity, minimal cytotoxic concentration (CellTiter96)
Procedure: Minimal cytotoxic concentrations (MCCs) against mammalian cells in culture were determined using Vero E6 ATCC CRL1586 cells and the CellTiter96 assay kit (Promega, Inc.). […]

Compound	MIC [1] [µg/mL]	MIC [2] [µg/mL]	MIC [3] [µg/mL]	MCC mammalian cells Vero E6 ATCC CRL1586 [4] [µg/mL]
O=C(NC(Cc1ccccc1)C(=O)Nc1cccc2[nH]ccc12)c1ccccc1 (stereo not drawn) [II-27]	12.5 (≈ 32.6 µM)	> 50	0.39 (≈ 1.02 µM)	41
O=C(NC(Cc1ccccc1)C(=O)Nc1cccc2sccc12)c1ccccc1 (stereo not drawn) [II-46]	3.12 (≈ 7.8 µM)	3.12 (≈ 7.8 µM)	0.195 (≈ 0.487 µM)	>100
O=C(NC(Cc1ccccc1)C(=O)Nc1cccc2ccsc12)c1ccccc1 (stereo not drawn) [II-47]	1.56 (≈ 3.9 µM)	3.12 (≈ 7.8 µM)	1.56 (≈ 3.9 µM)	>100
O=C(NC(Cc1ccccc1)C(=O)Nc1cccc2ccoc12)c1ccccc1 (stereo not drawn) [II-65]	> 50	> 50	0.39 (≈ 1.01 µM)	78
O=C(NC(Cc1ccc(O)cc1)C(=O)Nc1cccc2c1CCCC2)c1ccccc1 (stereo not drawn) [IX-6, N-(3-(4-hydroxyphenyl)-1-oxo-1-((5,6,7,8-tetrahydronaphthalen-1-yl)amino)propan-2-yl)benzamide]	6.25 (≈ 15.1 µM)	6.25 (≈ 15.1 µM)	1.56 (≈ 3.76 µM)	21
O=C(NC(Cc1ccccc1)C(=O)Nc1cccc2ccncc12)c1ccccc1 (stereo not drawn) [IX-15, N-(1-(isoquinolin-8-ylamino)-1-oxo-3-phenylpropan-2-yl)benzamide]	6.25 (≈ 15.8 µM)	25 (≈ 63.2 µM)	0.78 (≈ 1.97 µM)	85
O=C(NC(Cc1ccc(O)cc1)C(=O)Nc1cccc2ccncc12)c1ccccc1 (stereo not drawn) [IX-18, N-(3-(4-hydroxyphenyl)-1-(isoquinolin-8-ylamino)-1-oxopropan-2-yl)benzamide]	6.25 (≈ 15.2 µM)	12.5 (≈ 30.4 µM)	0.39 (≈ 0.948 µM)	>100
O=C(NC(Cc1ccc(O)cc1)C(=O)Nc1cccc2c1OCCO2)c1ccccc1 (stereo not drawn) [IX-21, N-(1-((2,3-dihydrobenzo[b][1,4]dioxin-5-yl)amino)-3-(4-hydroxyphenyl)-1-oxopropan-2-yl)benzamide]	6.25 (≈ 14.9 µM)	6.25 (≈ 14.9 µM)	0.78 (≈ 1.86 µM)	>100
COc1ccccc1NC(=O)C(Cc1ccc(O)cc1)NC(=O)c1ccccc1 (stereo not drawn) [IX-26, N-(3-(4-hydroxyphenyl)-1-((2-methoxyphenyl)amino)-1-oxopropan-2-yl)benzamide]	25 (≈ 64 µM)	50 (≈ 128 µM)	1.25 (≈ 3.2 µM)	>100
Cc1ccccc1NC(=O)C(Cc1ccc(O)cc1)NC(=O)c1cccs1 (stereo not drawn) [IX-28, N-(3-(4-hydroxyphenyl)-1-oxo-1-(o-tolylamino)propan-2-yl)thiophene-2-carboxamide]	12.5 (≈ 32.9 µM)	12.5 (≈ 32.9 µM)	0.39 (≈ 1.03 µM)	80
COc1ccccc1NC(=O)C(Cc1ccccc1)NC(=O)c1cccs1 (stereo not drawn) [IX-29, N-(1-((2-methoxyphenyl)amino)-1-oxo-3-phenylpropan-2-yl)thiophene-2-carboxamide]	3.12 (≈ 8.21 µM)	6.25 (≈ 16.4 µM)	0.195 (≈ 0.513 µM)	>100
O=C(NC(Cc1ccccc1)C(=O)Nc1cccc2cnccc12)c1cccs1 (stereo not drawn) [IX-30, N-(1-(isoquinolin-5-ylamino)-1-oxo-3-phenylpropan-2-yl)thiophene-2-carboxamide]	3.12 (≈ 7.78 µM)	6.25 (≈ 15.6 µM)	0.195 (≈ 0.486 µM)	37
O=C(NC(Cc1ccccc1)C(=O)Nc1cccc2c1OCCO2)c1cccs1 (stereo not drawn) [IX-31, N-(1-((2,3-dihydrobenzo[b][1,4]dioxin-5-yl)amino)-1-oxo-3-phenylpropan-2-yl)thiophene-2-carboxamide]	3.12 (≈ 7.65 µM)	3.12 (≈ 7.65 µM)	0.195 (≈ 0.477 µM)	30
COc1ccccc1NC(=O)C(Cc1ccc(O)cc1)NC(=O)c1cccs1 (stereo not drawn) [IX-32, N-(3-(4-hydroxyphenyl)-1-((2-methoxyphenyl)amino)-1-oxopropan-2-yl)thiophene-2-carboxamide]	12.5 (≈ 31.5 µM)	6.25 (≈ 15.8 µM)	0.195 (≈ 0.492 µM)	100
O=C(NC(Cc1ccc(O)cc1)C(=O)Nc1cccc2cnccc12)c1cccs1 (stereo not drawn) [IX-33, N-(3-(4-hydroxyphenyl)-1-(isoquinolin-5-ylamino)-1-oxopropan-2-yl)thiophene-2-carboxamide]	12.5 (≈ 29.9 µM)	6.25 (≈ 15 µM)	0.195 (≈ 0.467 µM)	80
O=C(NC(Cc1ccc(O)cc1)C(=O)Nc1cccc2c1OCCO2)c1cccs1 (stereo not drawn) [IX-34, N-(1-((2,3-dihydrobenzo[b][1,4]dioxin-5-yl)amino)-3-(4-hydroxyphenyl)-1-oxopropan-2-yl)thiophene-2-carboxamide]	6.25 (≈ 14.7 µM)	3.12 (≈ 7.36 µM)	0.39 (≈ 0.919 µM)	85
COc1ncccc1NC(=O)C(Cc1ccccc1)NC(=O)c1ccccc1 (stereo not drawn) [IX-38, N-(1-((2-methoxypyridin-3-yl)amino)-1-oxo-3-phenylpropan-2-yl)benzamide]	6.25 (≈ 16.6 µM)	6.25 (≈ 16.6 µM)	0.39 (≈ 1.04 µM)	38
O=C(NC(Cc1ccccc1)C(=O)Nc1cccc2cn[nH]c12)c1ccccc1 (stereo not drawn) [IX-39, N-(1-((1H-indazol-7-yl)amino)-1-oxo-3-phenylpropan-2-yl)benzamide]	> 50	> 50	1.56 (≈ 4.06 µM)	20
O=C(NC(Cc1ccc(O)cc1)C(=O)Nc1cccc2cc[nH]c12)c1ccccc1 (stereo not drawn) [IX-40, N-(1-((1H-indol-7-yl)amino)-3-(4-hydroxyphenyl)-1-oxopropan-2-yl)benzamide]	12.5 (≈ 31.3 µM)	12.5 (≈ 31.3 µM)	0.39 (≈ 0.976 µM)	78
O=C(NC(Cc1ccccc1)C(=O)Nc1cccc2cc[nH]c12)c1cccs1 (stereo not drawn) [IX-41, N-(1-((1H-indol-7-yl)amino)-1-oxo-3-phenylpropan-2-yl)thiophene-2-carboxamide]	12.5 (≈ 32.1 µM)	12.5 (≈ 32.1 µM)	0.39 (≈ 1 µM)	48
COc1ccccc1NC(=O)C(Cc1ccccc1)NC(=O)c1cccc2[nH]ccc12 (stereo not drawn) [IX-43, N-(1-((2-methoxyphenyl)amino)-1-oxo-3-phenylpropan-2-yl)-1H-indole-4-carboxamide]	6.25 (≈ 15.1 µM)	12.5 (≈ 30.2 µM)	0.39 (≈ 0.943 µM)	59
O=C(NC(Cc1ccccc1)C(=O)Nc1cccc2cnccc12)c1cccc2[nH]ccc12 (stereo not drawn) [IX-44, N-(1-(isoquinolin-5-ylamino)-1-oxo-3-phenylpropan-2-yl)-1H-indole-4-carboxamide]	1.56 (≈ 3.59 µM)	3.12 (≈ 7.19 µM)	0.195 (≈ 0.449 µM)	70
O=C(NC(Cc1ccccc1)C(=O)Nc1cccc2c1OCCO2)c1cccc2[nH]ccc12 (stereo not drawn) [IX-45, N-(1-((2,3-dihydrobenzo[b][1,4]dioxin-5-yl)amino)-1-oxo-3-phenyl-propan-2-yl)-1H-indole-4-carboxamide]	3.12 (≈ 7.08 µM)	6.25 (≈ 14.2 µM)	0.39 (≈ 0.883 µM)	71
Cc1ccc(Cl)cc1NC(=O)C(Cc1ccc(O)cc1)NC(=O)c1ccccc1 (stereo not drawn) [IX-51, N-(1-((5-chloro-2-methylphenyl)amino)-3-(4-hydroxyphenyl)-1-oxopropan-2-yl)benzamide]	3.12 (≈ 7.64 µM)	6.25 (≈ 15.3 µM)	0.78 (≈ 1.91 µM)	60
